Assay results taken from ChEMBL document CHEMBL4699470, “N-Substituted piperazine derivatives as potential multitarget agents acting on histamine H receptor and cancer resistance proteins” (Bioorg Med Chem Lett, 2020).

Legend:
L5178Y [1] = test: Cytotoxicity against mouse L5178Y cells assessed as reduction in cell viability by MTT assay; type: functional, cell-based
L5178Y [2] = test: Cytotoxicity against multidrug resistance mouse L5178Y cells expressing human MDR1 assessed as reduction in cell viability by MTT assay; type: functional, cell-based
[3] = target: T1, ATP-dependent translocase ABCB1 (Homo sapiens, UniProt P08183); test: Inhibition of human ABCB1 in expressed in multidrug resistant mouse L5178Y cells assessed as fluorescence activity ratio at 2 uM by rhodamine 123 retention assay relative to parental L5178Y cells; type: cell-based
T1 sequence (P08183 whole entry): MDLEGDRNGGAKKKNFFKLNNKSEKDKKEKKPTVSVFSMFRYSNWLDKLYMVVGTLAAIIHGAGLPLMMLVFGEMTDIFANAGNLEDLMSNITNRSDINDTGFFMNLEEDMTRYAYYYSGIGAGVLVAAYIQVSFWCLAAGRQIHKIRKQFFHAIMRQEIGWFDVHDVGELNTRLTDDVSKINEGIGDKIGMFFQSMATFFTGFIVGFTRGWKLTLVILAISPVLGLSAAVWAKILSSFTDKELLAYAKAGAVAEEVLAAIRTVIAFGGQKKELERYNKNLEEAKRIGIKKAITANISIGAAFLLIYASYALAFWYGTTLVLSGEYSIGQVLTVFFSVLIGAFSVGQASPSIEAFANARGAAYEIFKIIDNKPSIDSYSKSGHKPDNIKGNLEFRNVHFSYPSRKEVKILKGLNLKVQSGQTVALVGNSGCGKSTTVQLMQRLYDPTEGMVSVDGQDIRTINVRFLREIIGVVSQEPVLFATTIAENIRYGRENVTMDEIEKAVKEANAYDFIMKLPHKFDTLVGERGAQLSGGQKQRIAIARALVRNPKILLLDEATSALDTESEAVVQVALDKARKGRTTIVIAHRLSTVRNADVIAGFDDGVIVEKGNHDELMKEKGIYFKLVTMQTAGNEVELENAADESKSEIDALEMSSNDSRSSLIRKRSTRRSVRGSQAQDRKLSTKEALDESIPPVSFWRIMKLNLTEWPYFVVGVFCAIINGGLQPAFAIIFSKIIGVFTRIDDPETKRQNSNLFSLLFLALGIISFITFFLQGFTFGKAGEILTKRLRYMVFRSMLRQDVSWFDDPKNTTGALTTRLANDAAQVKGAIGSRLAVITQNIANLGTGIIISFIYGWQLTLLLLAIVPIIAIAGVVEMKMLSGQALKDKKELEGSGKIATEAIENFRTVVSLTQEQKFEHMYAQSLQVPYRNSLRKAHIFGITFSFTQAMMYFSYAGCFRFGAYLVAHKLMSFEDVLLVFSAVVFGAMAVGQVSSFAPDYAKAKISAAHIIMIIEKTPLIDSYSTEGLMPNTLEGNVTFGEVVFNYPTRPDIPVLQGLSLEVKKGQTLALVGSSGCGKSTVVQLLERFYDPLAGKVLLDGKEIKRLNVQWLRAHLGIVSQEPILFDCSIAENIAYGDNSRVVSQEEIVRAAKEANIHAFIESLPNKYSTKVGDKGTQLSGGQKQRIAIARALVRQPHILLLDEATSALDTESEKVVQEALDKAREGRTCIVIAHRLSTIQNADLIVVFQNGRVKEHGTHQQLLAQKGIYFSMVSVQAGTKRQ

L5178Y [4] = test: Antiproliferative activity against mouse L5178Y cells by MTT assay; type: functional, cell-based
[5] = target: T1, ATP-dependent translocase ABCB1; test: Inhibition of human ABCB1 in expressed in multidrug resistant mouse L5178Y cells assessed as fluorescence activity ratio at 20 uM by rhodamine 123 retention assay relative to parental L5178Y cells; type: cell-based
L5178Y [6] = test: Antiproliferative activity against multidrug resistance mouse L5178Y cells expressing human MDR1 by MTT assay; type: functional, cell-based
[7] = target: T1, ATP-dependent translocase ABCB1; test: Inhibition of human ABCB1 in expressed in multidrug resistant mouse L5178Y cells assessed as fluorescence activity ratio by rhodamine 123 retention assay relative to verapamil; type: cell-based
Homo sapiens = species: Homo sapiens; test: Substrate activity at Pgp (unknown origin) assessed as increase in ATP basal consumption at 100 uM by Pgp-Glo luminescence assay relative to control

| Ratio [3] | Ratio [5] | Ratio [7] | Activity (Homo sapiens) | Compound | IC50 (L5178Y [1]) | IC50 (L5178Y [2]) | IC50 (L5178Y [4]) | IC50 (L5178Y [6]) |
| --- | --- | --- | --- | --- | --- | --- | --- | --- |
| 0.83 | 0.82 |  |  | CCC(=O)c1ccc(OCCCN2CCN(c3cnccn3)CC2)cc1 | 47.5 µM | 60.3 µM | 24.3 µM | 30 µM |
|  |  |  |  | CSc1ccc2c(c1)N(CCC1CCCCN1C)c1ccccc1S2 (configuration not stated) [THIORIDAZINE] | 12.7 µM | 7.43 µM |  |  |
| 1.29 | 1.61 |  |  | CC(=O)c1ccc(OCCCN2CCN(c3ccncc3)CC2)cc1 | > 100 µM |  | 42.3 µM | 43.8 µM |
| 0.92 | 1.02 |  |  | CCC(=O)c1ccc(OCCCN2CCN(c3ncccn3)CC2)cc1 | > 100 µM | 54.6 µM | 36.9 µM | 41.3 µM |
| 0.84 | 0.99 |  |  | CC(=O)c1ccc(OCCCCN2CCN(c3cccnc3)CC2)cc1 | 69 µM | 44 µM | 24.2 µM | 29.8 µM |
| 0.98 | 8.71 | 1.6 |  | CC(=O)c1ccc(OCCCCN2CCN(c3ccccn3)CC2)cc1 | 63.7 µM | 46.2 µM | 24.1 µM | 25.5 µM |
| 2.7 | 34.05 | 1.6 |  | CC(C)(C)c1ccc(OCCCCN2CCN(c3ncccn3)CC2)cc1 | 20.8 µM | 17.6 µM | 11.3 µM | 9.88 µM |
| 2.17 | 32.32 | 1.6 |  | CCC(C)(C)c1ccc(OCCCCN2CCN(c3ncccn3)CC2)cc1 | 46.4 µM | 32.1 µM | 17.7 µM | 18.9 µM |
| 0.86 | 1.28 |  |  | CC(=O)c1ccc(OCCCCN2CCN(c3ncccn3)CC2)cc1 | > 100 µM | 63.9 µM | 31.6 µM | 38.9 µM |
| 1.85 | 73.64 | 1.6 | > 100% | CCC(C)(C)c1ccc(OCCCCN2CCN(c3cnccn3)CC2)cc1 | 12.6 µM | 12.8 µM | 9.56 µM | 9.49 µM |
| 0.92 | 0.84 |  |  | CC(=O)c1ccc(OCCCN2CCN(c3ccccn3)CC2)cc1 |  | 49.7 µM | 27.1 µM | 32.8 µM |
| 1.06 | 1.03 |  |  | CC(=O)c1ccc(OCCCN2CCN(c3ncccn3)CC2)cc1 | > 100 µM |  | 53.2 µM | 77.5 µM |
| 1.74 | 38.41 | 1.6 | > 100% | CC(C)(C)c1ccc(OCCCCN2CCN(c3ccccn3)CC2)cc1 | 15.1 µM | 16.7 µM | 11.9 µM | 16.4 µM |
| 0.93 | 1.02 |  |  | CC(C)(C)c1ccc(OCCCN2CCN(c3ncccn3)CC2)cc1 | 40.4 µM | 49.4 µM | 25.6 µM | 20.7 µM |
| 2.81 | 25.33 | 1.6 | > 100% | CC(C)(C)c1ccc(OCCCCN2CCN(c3cccnc3)CC2)cc1 | 11.7 µM | 10.5 µM | 5.48 µM | 5.99 µM |
| 1.36 | 17.85 | 1.6 |  | CC(C)(C)c1ccc(OCCCCN2CCN(c3cnccn3)CC2)cc1 | 18.3 µM | 27.6 µM | 9.86 µM | 9.68 µM |
| 5.95 | 19.26 | 1.6 | > 100% | CCC(C)(C)c1ccc(OCCCCN2CCN(c3cccnc3)CC2)cc1 | 9.23 µM | 7.59 µM | 3.23 µM | 3.68 µM |
